Values after ≈ are worked out from the molar mass of the structure shown.
Test system: WI-38 VA13
Experiment: Effective concentration required to cause cytotoxicity to tumorigenic cell line WI-38 VA-13 subline 2RA
Type: functional, cell-based
Settings: Homo sapiens

SMILES | EC50
CNc1c(C(=O)c2ccccc2)sc2nc(-c3cccs3)ccc12 | 0.42 µg/mL (≈ 1.2 µM)
COc1ccc(OC)c(C(=O)c2sc3nc(-c4cccs4)ccc3c2N)c1 | 0.079 µg/mL (≈ 0.199 µM)
COc1ccccc1C(=O)c1sc2nc(-c3cccs3)ccc2c1N | 0.059 µg/mL (≈ 0.161 µM)
CCOC(=O)c1sc2nc(-c3cccs3)ccc2c1N | > 4 µg/mL
Nc1c(C(=O)c2ccc(Br)cc2)sc2nc(-c3cccs3)ccc12 | 2.8 µg/mL (≈ 6.74 µM)
Nc1c(C(=O)c2ccc(F)cc2)sc2nc(-c3cccs3)ccc12 | 1.8 µg/mL (≈ 5.08 µM)
Nc1c(C(=O)c2ccc(F)cc2F)sc2nc(-c3cccs3)ccc12 | 2.3 µg/mL (≈ 6.18 µM)
COc1cccc(C(=O)c2sc3nc(-c4cccs4)ccc3c2N)c1 | 0.03 µg/mL (≈ 0.0819 µM)
Nc1c(C(=O)c2cccc([N+](=O)[O-])c2)sc2nc(-c3cccs3)ccc12 | 0.15 µg/mL (≈ 0.393 µM)
CCOC(=O)c1oc2cc(-c3ccccc3)cc(OC)c2c1C | > 4 µg/mL
CN(C)c1c(C(=O)c2ccccc2)sc2nc(-c3cccs3)ccc12 | > 4 µg/mL
CC(=O)c1sc2nc(-c3cccs3)ccc2c1N | 2.7 µg/mL (≈ 9.84 µM)
CC(C)(C)C(=O)c1sc2nc(-c3cccs3)ccc2c1N | 0.57 µg/mL (≈ 1.8 µM)
Nc1c(C(=O)c2ccccc2)sc2nc(-c3cccs3)ccc12 | 0.09 µg/mL (≈ 0.268 µM)
Nc1c(C(=O)c2cccc(Br)c2)sc2nc(-c3cccs3)ccc12 | 0.5 µg/mL (≈ 1.2 µM)
COc1ccc(C(=O)c2sc3nc(-c4cccs4)ccc3c2N)c(OC)c1 | 0.52 µg/mL (≈ 1.31 µM)
CCC(=O)c1sc2nc(-c3cccs3)ccc2c1N | 0.89 µg/mL (≈ 3.09 µM)
Nc1c(C(=O)c2ccc(F)c(F)c2)sc2nc(-c3cccs3)ccc12 | > 4 µg/mL
COc1ccc(C(=O)c2sc3nc(-c4cccs4)ccc3c2N)cc1 | 0.77 µg/mL (≈ 2.1 µM)
Nc1c(C(=O)c2cccc(F)c2)sc2nc(-c3cccs3)ccc12 | 0.025 µg/mL (≈ 0.0705 µM)

— ChEMBL document CHEMBL1147459, “Thienopyridine and benzofuran derivatives as potent anti-tumor agents possessing different structure-activity relationships” (Bioorg Med Chem Lett, 2004)
